According to patent publication US20060052432A1, “Pharmaceutical compositions with improved dissolution” (priority 2002, published 2006):
Where a name gives a salt, the structure may show the parent alone.

Tests used:
[1] = In vitro dissolution studies in simulated gastric fluid; assay type: physicochemical
Procedure: 1. […] The celecoxib salt was ground using mortar and pestle until fine powder was formed. […] 2. Formulation Preparation • a. Fresh PLURONIC excipient was dispensed into a mortar. If initially a solid at room temperature, the PLURONIC was ground until a smooth powder was formed. • b. If HPC was to be added, it was dispensed after the PLURONIC excipient. […] 3. Dissolution Assay • a. A water bath was set up at 37 degrees C. • b. Simulated gastric fluid in the fasted state (SGF) was prepared at pH 1.7 and diluted five times with deionized water. […] The simulated gastric fluid was diluted five times to simulate the effect of drinking a glass of water with the medication. The SGF was pre-heated to 37 degrees C. • c. The formulation was placed in a 20 mL scintillation vial. • d. A 10 mm x 3 mm stir bar was added. • e. Diluted SGF was added to the formulation. […] The vial was placed in the water bath and allowed to stir. • g. […] The first ⅔ of filtrate was discarded as waste and the last ⅓ was collected into an eppendorf tube. 0.1 mL of the collected filtrate was immediately transferred to an autosampler vial and diluted ten times with 0.9 mL of methanol. The autosampler vials were crimp sealed and submitted for content analysis using high performance liquid chromatography with ultraviolet detection. In Vitro Dissolution Studies of PLURONIC Excipients - Results: […]

[2] = commercially available neutral form; cited from earlier work
pKa = assay type: physicochemical
[3] = Pharmacokinetic studies in rats, 5 mg/kg oral doses; assay type: in vivo, male Sprague-Dawley rats; settings: gelatin capsule, sodium salt blended 1:4 with polyvinylpyrrolidone, compared with CELEBREX
Procedure: The sodium salt form (from Example 6) was compared with CELEBREX powder in terms of absorption in rats (FIGS. 4A and 4B).
Solids were placed in size 9 gelatin capsules (Torpac) and dosed via gavage needle, followed by oral gavage of 1 mL water. CELEBREX granulation was transferred from commercial 200 mg capsules. The sodium salt was blended with polyvinylpyrrolidone (e.g. PovidoneK30) in a 1:4 mixture. The plots are averages of plasma levels at each of the time points from plasma of 5 rats.

[4] = Administration of celecoxib compositions to dogs (plasma pharmacokinetics); settings: single oral dose, 5 mpk, male dogs
[5] = Solubility of celecoxib sodium salt in the presence of polyvinylpyrrolidone; assay type: physicochemical; settings: added to aqueous PVP, or water added to dry blend with PVP
[6] = according to WO 01/78724; cited from earlier work
Solubility in water = assay type: physicochemical

CCOCCOCCO [Transcutol P]
effect on dissolution of celecoxib free acid [1]: does not enhance dissolution of the free acid

Cc1onc(-c2ccccc2)c1-c1ccc(S(N)(=O)=O)cc1 [Valdecoxib, 4-(5-methyl-3-phenyl-4-isoxazolyl)benzene sulfonamide]
solubility in water (in words) [2]: essentially insoluble in water
pKa (pKa): ~11

Cc1ccc(-c2cc(C(F)(F)F)nn2-c2ccc(S(N)(=O)=O)cc2)cc1 [celecoxib sodium salt, sodium salt of 4-[5-(4-methylphenyl)-3-(trifluoromethyl)-1H-pyrazol-1-yl]benzenesulfonamide]
peak level of the drug in plasma [3]: faster peak level of the drug in plasma
maximum blood serum concentration reached faster than for celecoxib [4]: 40%

Cc1ccc(-c2cc(C(F)(F)F)nn2-c2ccc(S(N)(=O)=O)cc2)cc1 [celecoxib, 4-[5-(4-methylphenyl)-3-(trifluoromethyl)-1H-pyrazol-1-yl]benzenesulfonamide]
solubility in water (in words) [2]: essentially insoluble in water
dissolution in aqueous polyvinylpyrrolidone [5]: did not dissolve
solubility in Transcutol P [6]: 350 mg/g
ability to be maintained as a supersaturated solution (Solubility in water): cannot be maintained as a supersaturated solution for any appreciable time
solubility (Solubility in water): < 1 µg/mL
